Measured values reported in patent US12150995B2, “IRAK degraders and uses thereof” (Kymera Therapeutics, Inc., priority 2020, dated 2024).

The compounds below were run against T1, IRAK4 (Homo sapiens, UniProt Q9NWZ3) (assay: IRAK4 MSD Degradation in OCI-LY10). Details: OCI-LY10 cells, Meso Scale Discovery, incubated 4 to 24 hours.
T1 construct: endogenous in cells; host or cells: OCI-LY10
T1 sequence (Q9NWZ3 1-460): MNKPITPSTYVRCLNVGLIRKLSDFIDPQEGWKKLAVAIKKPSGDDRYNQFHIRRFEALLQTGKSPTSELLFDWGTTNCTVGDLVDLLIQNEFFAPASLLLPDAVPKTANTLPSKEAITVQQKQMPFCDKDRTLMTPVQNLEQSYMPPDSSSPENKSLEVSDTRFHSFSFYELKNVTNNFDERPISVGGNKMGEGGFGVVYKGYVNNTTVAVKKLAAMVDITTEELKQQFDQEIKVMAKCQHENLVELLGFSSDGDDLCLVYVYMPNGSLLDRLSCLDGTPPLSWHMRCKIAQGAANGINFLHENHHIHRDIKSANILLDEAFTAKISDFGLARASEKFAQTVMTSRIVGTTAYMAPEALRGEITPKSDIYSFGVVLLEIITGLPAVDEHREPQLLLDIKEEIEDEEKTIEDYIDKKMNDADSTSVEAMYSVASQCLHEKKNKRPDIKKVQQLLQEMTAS
Assay type: cell-based
In short: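 IRAK4 degradation was quantified by Meso Scale electrochemiluminescence (anti-IRAK4 capture and detection antibodies) in lysates of treated OCI-LY10 cells. Compounds were dosed at 8 concentrations (1:3 dilutions, top 1 to 10 μM) for 4 to 24 h; DC50 derived by three-parameter logistic fitting.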
With `COc1cc2nn([C@H]3C[C@H](CN4CC(c5cccc6c5n(C)c(=O)n6C5CCC(=O)NC5=O)C4)C3)cc2cc1NC(=O)c1cccc(C(F)(F)F)n1` (stereo partly drawn) [I-46, N-[2-[3-[[3-[1-(2,6-dioxo-3-piperidyl)-3-methyl-2-oxo-benzimidazol-4-yl]azetidin-1-yl]methyl]cyclobutyl]-6-methoxy-indazol-5-yl]-6-(trifluoromethyl)pyridine-2-carboxamide] the DC50 was 10 to 50 nM. Work on `O=C1CCC(N2C(=O)c3cccc(NCCC4CC5(C4)CN(C[C@H]4CC[C@H](n6cc7cc(NC(=O)c8cccc(C(F)(F)F)n8)c(OC8CC8)cc7n6)CC4)C5)c3C2=O)C(=O)N1` (stereo partly drawn) [I-2] yielded a DC50 of over 200 nM. `Cn1c(=O)n(C2CCC(=O)NC2=O)c2cccc(N3CCN(C[C@H]4CC[C@H](n5cc6cc(NC(=O)c7cccc(C(F)(F)F)n7)c(N7CCCC7)cc6n5)CC4)CC3)c21` (stereo partly drawn) [I-392] gave a DC50 of 10 to 50 nM. `COc1cc2nn([C@H]3CC[C@H](CN4CCC5(CC4)CC(CNc4cccc6c4C(=O)N(C4CCC(=O)NC4=O)C6=O)C5)CC3)cc2cc1NC(=O)c1cccc(C(C)(F)F)n1` (stereo partly drawn) [I-4] was tested, and the DC50 was 50 to 100 nM. Work on `COc1cc2nc([C@H]3CC[C@H](CN4CCC(c5ccc6c(N7CCC(=O)NC7=O)cncc6c5)CC4)CC3)sc2cc1NC(=O)c1cccc(C(F)(F)F)n1` [I-125] yielded a DC50 of under 10 nM. In the case of `COc1cncc(C(=O)Nc2cc3cn([C@H]4CC[C@H](CN5CCN(c6cccc7c6n(C)c(=O)n7C6CCC(=O)NC6=O)CC5)CC4)nc3cc2OC)c1` (stereo partly drawn) [I-287], the DC50 is reported as under 10 nM. `COc1cc2nc([C@H]3CC[C@H](CN(C)CCCNc4cccc5c4C(=O)N(C4CCC(=O)NC4=O)C5=O)CC3)sc2cc1NC(=O)c1cncc(F)c1` (stereo partly drawn) [I-482] gave a DC50 of over 200 nM. `Cn1c(=O)n(C2CCC(=O)NC2=O)c2cccc(C3CCN(C[C@H]4C[C@H](n5cc6cc(NC(=O)c7cccc(C(F)(F)F)n7)c(F)cc6n5)C4)CC3)c21` (stereo partly drawn) [I-30] gave a DC50 of 10 to 50 nM. Compound `CN(Cc1ccc(-n2cc3cc(NC(=O)c4cccc(C(F)(F)F)n4)c(C(C)(C)O)cc3n2)cc1)[C@H]1CC[C@H](Nc2cccc3c2C(=O)N(C2CCC(=O)NC2=O)C3=O)CC1` (stereo partly drawn) [I-463] has a DC50 of 10 to 50 nM. With `Cc1c(C2CCN(C[C@H]3CC[C@H](n4cc5cc(NC(=O)c6cccc(C(F)(F)F)n6)ccc5n4)CC3)CC2)ccc2c1n(C)c(=O)n2C1CCC(=O)NC1=O` (stereo partly drawn) [I-202] the DC50 was over 200 nM. Compound `COc1cc2nn([C@H]3CC[C@H](CN4CCC(CCNc5cccc6c5C(=O)N(C5CCC(=O)NC5=O)C6=O)CC4)CC3)cc2cc1NC(=O)c1cccc(C(C)(F)F)n1` (stereo partly drawn) [I-8] has a DC50 of 10 to 50 nM. Compound `Cn1c(=O)n(C2CCC(=O)NC2=O)c2cccc(C3CCN(C[C@H]4CC[C@H](n5cc6cc(NC(=O)c7nc(C(F)(F)F)cs7)ccc6n5)CC4)CC3)c21` (stereo partly drawn) [I-215] has a DC50 of under 10 nM. Compound `Cc1cccc(C(=O)Nc2cc3sc([C@H]4CC[C@H](C(=O)N5CC6(CC(CCNc7cccc8c7C(=O)N(C7CCC(=O)NC7=O)C8=O)C6)C5)CC4)nc3cc2C(C)(C)O)n1` (stereo partly drawn) [I-469] has a DC50 of 100 to 200 nM. With `COc1cc2nn([C@H]3CC[C@H](CN4CC5(CN(Cc6cccc7c6n(C)c(=O)n7C6CCC(=O)NC6=O)C5)C4)CC3)cc2cc1NC(=O)c1cncc(C#N)c1` (stereo partly drawn) [I-244] the DC50 was 100 to 200 nM. For `CN(C[C@H]1CC[C@H](n2cc3cc(NC(=O)c4cncc(C#N)c4)c(OC(F)(F)F)cc3n2)CC1)C1CCN(c2cccc3c2n(C)c(=O)n3C2CCC(=O)NC2=O)CC1` (stereo partly drawn) [I-249], the DC50 was over 200 nM. `N#Cc1cnc2c(C(=O)Nc3ccc4nn([C@H]5CC[C@H](CN6CCC(c7cccc8c(N9CCC(=O)NC9=O)cncc78)CC6)CC5)cc4c3)cnn2c1` [I-204, 6-Cyano-N-[2-[4-[[4-[4-(2,4-dioxohexahydropyrimidin-1-yl)-8-isoquinolyl]-1-piperidyl]methyl]cyclohexyl]indazol-5-yl]pyrazolo[1,5-a]pyrimidine-3-carboxamide] showed a DC50 of 10 to 50 nM. In the case of `COc1cc2nc([C@H]3CC[C@H](CN4CCN(c5cccc6c(N7CCC(=O)NC7=O)cncc56)CC4)CC3)sc2cc1NC(=O)c1cccc(C(F)(F)F)n1` [I-223], the DC50 is reported as 10 to 50 nM. With `N#Cc1cnc2c(C(=O)Nc3ccc4nn([C@H]5CC[C@H](CN6CCC(c7ccc8c(N9CCC(=O)NC9=O)cncc8c7)CC6)CC5)cc4c3)cnn2c1` [I-170, 6-Cyano-N-[2-[4-[[4-[4-(2,4-dioxohexahydropyrimidin-1-yl)-7-isoquinolyl]-1-piperidyl]methyl]cyclohexyl]indazol-5-yl]pyrazolo[1,5-a]pyrimidine-3-carboxamide] the DC50 was over 200 nM. With `COc1cc2nn([C@H]3CC[C@H](CN4CC[C@@H](c5cccc6c5n(C)c(=O)n6C5CCC(=O)NC5=O)C4)CC3)cc2cc1NC(=O)c1cccc(C(F)(F)F)n1` (stereo partly drawn) [I-428] the DC50 was under 10 nM. In the case of `COc1cc2c(cc1NC(=O)c1cccc(C(F)(F)F)n1)cc([C@H]1CC[C@H](CN(C)C3CCN(c4cccc5c4n(C)c(=O)n5C4CCC(=O)NC4=O)CC3)CC1)n2C` (stereo partly drawn) [I-41], the DC50 is reported as over 200 nM. Work on `COc1cc2nc(N3CCC(CN4CCN(c5cccc6c5n(C)c(=O)n6C5CCC(=O)NC5=O)CC4)CC3)sc2cc1NC(=O)c1cccc(C(F)(F)F)n1` (stereo not drawn) [I-427] yielded a DC50 of 10 to 50 nM. `Cn1c(=O)n(C2CCC(=O)NC2=O)c2cccc(C3CCN(C(=O)[C@H]4CC[C@H](n5cc6cc(NC(=O)c7cccc(C(F)(F)F)n7)ncc6n5)CC4)CC3)c21` (stereo partly drawn) [I-188] showed a DC50 of over 200 nM. Compound `COc1ccc2c(c1C1CCN(C[C@H]3CC[C@H](n4cc5cc(NC(=O)c6cccc(C(F)(F)F)n6)c(F)cc5n4)CC3)CC1)n(C)c(=O)n2C1CCC(=O)NC1=O` (stereo partly drawn) [I-47] has a DC50 of 10 to 50 nM. With `COc1cc2c(cc1NC(=O)c1cccc(C(F)(F)F)n1)cc([C@H]1CC[C@H](CN3CCC(c4cccc5c4n(C)c(=O)n5C4CCC(=O)NC4=O)CC3)CC1)n2C` (stereo partly drawn) [I-43] the DC50 was over 200 nM. `COc1cc2nn([C@H]3CC[C@H](CN(C)C4CCN(c5cccc6c5n(C)c(=O)n6C5CCC(=O)NC5=O)CC4)CC3)cc2cc1NC(=O)c1ccc(C(F)(F)F)cn1` (stereo partly drawn) [I-16] showed a DC50 of 10 to 50 nM. `COc1cc2nn([C@H]3CC[C@H](CN4CCC(c5cccc6c5n(C)c(=O)n6C5CCC(=O)NC5=O)CC4)CC3)cc2cc1NC(=O)c1cncc(C#N)c1` (stereo partly drawn) [I-77] was tested, and the DC50 was under 10 nM. For `COc1cc2nn([C@H]3CC[C@H](CN4CCC(c5c(C)ccc6c5n(C)c(=O)n6C5CCC(=O)NC5=O)CC4)CC3)cc2cc1NC(=O)c1cncc(C(F)(F)F)c1` (stereo partly drawn) [I-108], the DC50 was under 10 nM. `O=C1CCN(c2cncc3cc(C4CCN(C[C@H]5CC[C@H](c6nc7ccc(NC(=O)c8cccc(C(F)(F)F)n8)cc7s6)CC5)CC4)ccc23)C(=O)N1` [I-181] was tested, and the DC50 was over 200 nM. In the case of `CC(C)(O)c1cc2nn([C@H]3CC[C@H](CN4CCN(c5cccc6c(N7CCC(=O)NC7=O)cncc56)CC4)CC3)cc2cc1NC(=O)c1cccc(C(F)(F)F)n1` [I-224], the DC50 is reported as under 10 nM. `CC(C)Nc1cc(-n2ccc3cc(C#N)cnc32)ncc1C(=O)NC[C@H]1CC[C@H](CN2CCC(c3cccc4c3n(C)c(=O)n4C3CCC(=O)NC3=O)CC2)CC1` (stereo partly drawn) [I-85] showed a DC50 of 50 to 100 nM. With `Cc1cccc(C(=O)Nc2cc3sc([C@H]4CC[C@H](CN5CCN(CCCNc6cccc7c6C(=O)N(C6CCC(=O)NC6=O)C7=O)[C@H](C)C5)CC4)nc3cc2C(C)(C)O)n1` (stereo partly drawn) [I-452] the DC50 was 10 to 50 nM. Compound `Cn1c(=O)n(C2CCC(=O)NC2=O)c2cccc(N3CCN(C[C@H]4CC[C@H](n5cc6cc7nc(-c8cccc(C(F)(F)F)n8)oc(=O)c7cc6n5)CC4)CC3)c21` (stereo partly drawn) [I-406, 3-[3-methyl-2-oxo-4-[4-[[4-[8-oxo-6-[6-(trifluoromethyl)-2-pyridyl]pyrazolo[3,4-g] [3,1]benzoxazin-2-yl]cyclohexyl]methyl]piperazin-1-yl]benzimidazol-1-yl]piperidine-2,6-dione] has a DC50 of 10 to 50 nM. `COc1cc2nn([C@H]3CC[C@H](CN4CCCN(c5cccc6c5n(C)c(=O)n6C5CCC(=O)NC5=O)CC4)CC3)cc2cc1NC(=O)c1cncc(C#N)c1` (stereo partly drawn) [I-367] showed a DC50 of 10 to 50 nM. Compound `COc1cc2nn([C@H]3CC[C@H](CN4CCN(c5cc(F)cc6c(N7CCC(=O)NC7=O)cncc56)CC4)CC3)cc2cc1NC(=O)c1cccc(C(F)(F)F)n1` [I-413] has a DC50 of under 10 nM. In the case of `COc1cc2nn([C@H]3CC[C@H](CN4CCN(c5cccc6c5n(C)c(=O)n6C5CCC(=O)NC5=O)CC4)CC3)cc2cc1NC(=O)c1cccc(C(F)(F)F)c1F` (stereo partly drawn) [I-216], the DC50 is reported as under 10 nM. With `CCc1cc2nn([C@H]3CC[C@H](CN4CCN(c5cccc6c(N7CCC(=O)NC7=O)cncc56)CC4)CC3)cc2cc1NC(=O)c1cccc(C(F)(F)F)n1` [I-377] the DC50 was under 10 nM. `CC(C)Nc1cc(-n2ccc3cc(C#N)cnc32)ncc1C(=O)N[C@H]1CC[C@H](CN(C)C2CCN(c3cccc4c3n(C)c(=O)n4C3CCC(=O)NC3=O)CC2)CC1` (stereo partly drawn) [I-118] gave a DC50 of under 10 nM. For `CC(C)Nc1cc(-n2ccc3cc(C#N)cnc32)ncc1C(=O)NC[C@H]1CC[C@H](CN(C)C2CCN(c3cccc4c3n(C)c(=O)n4C3CCC(=O)NC3=O)CC2)CC1` (stereo partly drawn) [I-105], the DC50 was 50 to 100 nM. Compound `COc1cc2nn([C@H]3CC[C@H](CN4C[C@H]5C[C@@H]4CN5c4cccc5c4n(C)c(=O)n5C4CCC(=O)NC4=O)CC3)cc2cc1NC(=O)c1cncc(C#N)c1` (stereo partly drawn) [I-166] has a DC50 of over 200 nM. `COc1cc2nn([C@H]3CC[C@H](CN4C5CCC4CN(c4cccc6c(N7CCC(=O)NC7=O)cncc46)C5)CC3)cc2cc1NC(=O)c1cccc(C(F)(F)F)n1` [I-219] gave a DC50 of under 10 nM. `CC(C)Nc1c(C(=O)N[C@H]2CC[C@H](CN3CCN(c4cccc5c4n(C)c(=O)n5C4CCC(=O)NC4=O)CC3)CC2)cnc2sc(-c3cncs3)cc12` (stereo partly drawn) [I-416] showed a DC50 of under 10 nM. With `Cn1c(=O)n(C2CCC(=O)NC2=O)c2cccc(C3CC4CCC(C3)N4C[C@H]3CC[C@H](n4cc5cc(NC(=O)c6cccc(C(F)(F)F)n6)ccc5n4)CC3)c21` (single isomer, unassigned) [I-251] the DC50 was under 10 nM.
